Calls of active or inactive are those of the source. Bridge positions count the residues as written; N and C are the ends. Square brackets hold non-standard residues; d marks the D form. Peptide text beside a SMILES is read from it. NMeF = CN[C@@H](Cc1ccccc1)C(=O)O
Tests used:
[1] = molecular target: T1, Neuropeptide FF receptor 1 (Homo sapiens, UniProt Q9GZQ6); assay: (§1) Agonist activity at NPFF1R (unknown origin) expressed in HEK293-A cells assessed as inhibition of forskolin-induced cAMP accumulation preincubated for 30 mins in presence of 3-isobutyl-1-methylxanthine followed by forskolin and compound addition by competitive PKA binding assay; format: functional, cell-based
[2] = molecular target: T1, Neuropeptide FF receptor 1; assay: as §1, with “accumulation by measuring maximal efficacy” for “accumulation”, “assay relative to control” for “assay”; format: functional, cell-based; settings: filed as agonist
[3] = molecular target: Neuropeptide FF receptor 2 (Homo sapiens, UniProt Q9Y5X5); assay: Agonist activity at NPFF2R (unknown origin) expressed in HEK293-A cells assessed as inhibition of forskolin-induced cAMP accumulation preincubated for 30 mins in presence of 3-isobutyl-1-methylxanthine followed by forskolin and compound addition by competitive PKA binding assay; format: functional, cell-based; settings: read-out: EC50
[4] = Metabolic stability in mouse plasma assessed as degradation half life at 0.01 M measured up to 360 mins; format: ADME, cell-free
[5] = system: Mus musculus; assay: Antinociceptive activity against Kunming mouse model of thermal-induced nociception assessed as duration of analgesic effect administered subcutaneously by tail-flick test; format: functional
[6] = system: Mus musculus; assay: Antinociceptive activity in Kunming mouse assessed as analgesic tolerance administered subcutaneously once daily for 8 days by tail flick test; format: functional, organism-based; settings: time 8.0 day
[7] = system: Mus musculus; assay: Antinociceptive activity against Kunming mouse model of thermal-induced nociception assessed as maximum possible effect at 8.68 nmol/kg, po measured after 20 min by tail flick test relative to control; format: functional
[8] = system: Mus musculus; assay: Antinociceptive activity against Kunming mouse model of thermal-induced nociception assessed as maximum possible effect at 8.68 nmol/kg, po measured after 60 min by tail flick test relative to control; format: functional; settings: 1 h
[9] = AUC (0 to infinity) in Kunming mouse at 868.1 nmol/kg, iv measured up to 120 mins by LC-MS/MS analysis; format: ADME, organism-based; set-up: route intravenous, dose 868.1 nmol/kg, time <=120; settings: in vivo, 2 h
[10] = MRT (0 to infinity) in Kunming mouse at 868.1 nmol/kg, iv measured up to 120 mins by LC-MS/MS analysis; format: ADME, organism-based; settings: in vivo
[11] = Clearance in Kunming mouse at 868.1 nmol/kg, iv measured up to 120 mins by LC-MS/MS analysis; format: ADME, organism-based; settings: in vivo
[12] = Cmax in Kunming mouse at 868.1 nmol/kg, po measured up to 120 mins by LC-MS/MS analysis; format: ADME, organism-based; set-up: route oral, dose 868.1 nmol/kg, time <=120; settings: in vivo
[13] = Clearance in Kunming mouse at 868.1 nmol/kg, po measured up to 120 mins by LC-MS/MS analysis; format: ADME, organism-based; settings: in vivo
[14] = Apparent volume of distribution in Kunming mouse at 868.1 nmol/kg, po measured up to 120 mins by LC-MS/MS analysis; format: ADME, organism-based; settings: in vivo, 2 h
[15] = system: Mus musculus; assay: Antinociceptive activity against icv dosed Kunming mouse model of thermal-induced nociception assessed as prolongation of tail-flick latency period measured up to 240 mins by tail-flick test; format: functional; settings: time min <=240
[16] = system: Mus musculus; assay: Antinociceptive activity against Kunming mouse model of thermal-induced nociception assessed as prolongation of tail-flick latency period at 2 pmol, icv in presence of NTI measured up to 240 mins by tail-flick test; format: functional, organism-based; settings: time min <=240
[17] = system: Mus musculus; assay: Antinociceptive activity against Kunming mouse model of thermal-induced nociception assessed as prolongation of tail-flick latency period at 8.68 nmol/kg, sc in presence of Nal at 1 mg/kg, sc measured up to 240 mins by tail-flick test; format: functional, organism-based; settings: time min <=240
[18] = system: Mus musculus; assay: Antinociceptive activity against Kunming mouse model of thermal-induced nociception assessed as prolongation of tail-flick latency period at 8.68 nmol/kg, sc in presence of NALM at 1 mg/kg, sc measured up to 240 mins by tail-flick test; format: functional, organism-based; settings: time min <=240
[19] = system: Mus musculus; assay: Antinociceptive activity against Kunming mouse model of thermal-induced nociception assessed as prolongation of tail-flick latency period at 8.68 nmol/kg, sc in presence of beta-FNA at 1 mg/kg, sc measured up to 240 mins by tail-flick test; format: functional, organism-based; settings: time min <=240
[20] = system: Mus musculus; assay: Antinociceptive activity against Kunming mouse model of thermal-induced nociception assessed as prolongation of tail-flick latency period at 8.68 nmol/kg, sc in presence of NTI at 1 mg/kg, sc measured up to 240 mins by tail-flick test; format: functional, organism-based; settings: time min <=240
[21] = system: Mus musculus; assay: Antinociceptive activity against Kunming mouse model of thermal-induced nociception assessed as prolongation of tail-flick latency period at 8.68 nmol/kg, po in presence of beta-FNA at 1 mg/kg, ip measured up to 240 mins by tail-flick test; format: functional, organism-based; settings: time min <=240
[22] = system: Mus musculus; assay: Antinociceptive activity against Kunming mouse model of thermal-induced nociception assessed as prolongation of tail-flick latency period at 8.68 nmol/kg, po in presence of nor-BNI at 1 mg/kg, ip measured up to 240 mins by tail-flick test; format: functional, organism-based; settings: time min <=240
[23] = system: Mus musculus; assay: Antinociceptive activity against Kunming mouse model of thermal-induced nociception assessed as prolongation of tail-flick latency period at 8.68 nmol/kg, po in presence of NTI at 1 mg/kg, ip measured up to 240 mins by tail-flick test; format: functional, organism-based; settings: time min <=240
[24] = system: Mus musculus; assay: Antinociceptive activity against po dosed Kunming mouse model of carrageenan-induced mechanical inflammatory pain assessed as reduction in paw withdrawl threshold measured up to 180 mins by Von Frey assay; format: functional; settings: 3 h, time min <=180
[25] = Toxicity in Kunming mouse assessed as effect on motor coordination at 86.8 to 868.1 nmol/kg, po measured after 10 to 40 mins by Rotarod test; format: organism-based; settings: in vivo, dose lower 86.8 nmol/kg, time lower 10 min, dose upper 868.1 nmol/kg, time upper 40 min
[26] = Toxicity in Kunming mouse assessed as inhibition of gastrointestinal transit at 868.1 nmol/kg, po in presence of RF9 at 10 mg/kg, ip measured after 30 mins by charcoal meal test; format: organism-based; settings: in vivo, 0.5 h
[27] = Toxicity in Kunming mouse assessed as effect on locomotor activity at 86.8 to 868.1 nmol/kg, po measured for 150 mins by open field test; format: organism-based; settings: in vivo, 2.5 h, dose 86.8-868.1 nmol/kg
[28] = Toxicity in naloxone-induced withdrawal symptoms in Kunming mouse assessed as effect on jumping response at 17 to 870 nmol/kg, po for every 8 hrs followed by naloxone stimulation and measured for 3 days; format: organism-based; settings: in vivo, 72 h, dose 17-870 nmol/kg, time 3 day
[29] = Toxicity in Kunming mouse assessed as effect on arterial partial pressure of carbon dioxide at 868.1 nmol/kg, po measured up to 30 mins by blood gas analyzer; format: organism-based; settings: in vivo, 0.5 h
[30] = Toxicity in Kunming mouse assessed as effect on arterial partial pressure of oxygen at 868.1 nmol/kg, po measured up to 30 mins by blood gas analyzer; format: organism-based; settings: in vivo, 0.5 h
[31] = Toxicity in Kunming mouse assessed as effect on arterial pH at 868.1 nmol/kg, po measured up to 30 mins by blood gas analyzer; format: organism-based; settings: in vivo, 0.5 h
[32] = Toxicity in Kunming mouse assessed as effect on arterial bicarbonate level at 868.1 nmol/kg, po measured up to 30 mins by blood gas analyzer; format: organism-based; settings: in vivo, 0.5 h
[33] = molecular target: Mu-type opioid receptor (Homo sapiens, UniProt P35372)
Chain of Mu-type opioid receptor (P35372 whole entry): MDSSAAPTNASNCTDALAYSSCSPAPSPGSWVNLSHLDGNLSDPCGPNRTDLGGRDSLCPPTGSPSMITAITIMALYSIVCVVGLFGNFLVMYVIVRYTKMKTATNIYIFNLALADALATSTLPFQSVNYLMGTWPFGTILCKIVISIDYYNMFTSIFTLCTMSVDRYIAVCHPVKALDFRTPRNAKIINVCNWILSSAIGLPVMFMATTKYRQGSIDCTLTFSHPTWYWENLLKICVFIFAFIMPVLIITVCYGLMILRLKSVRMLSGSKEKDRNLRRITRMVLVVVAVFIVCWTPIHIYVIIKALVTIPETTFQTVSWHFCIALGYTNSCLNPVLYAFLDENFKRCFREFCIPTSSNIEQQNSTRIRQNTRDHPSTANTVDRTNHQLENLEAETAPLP

T1 sequence (Q9GZQ6 whole entry): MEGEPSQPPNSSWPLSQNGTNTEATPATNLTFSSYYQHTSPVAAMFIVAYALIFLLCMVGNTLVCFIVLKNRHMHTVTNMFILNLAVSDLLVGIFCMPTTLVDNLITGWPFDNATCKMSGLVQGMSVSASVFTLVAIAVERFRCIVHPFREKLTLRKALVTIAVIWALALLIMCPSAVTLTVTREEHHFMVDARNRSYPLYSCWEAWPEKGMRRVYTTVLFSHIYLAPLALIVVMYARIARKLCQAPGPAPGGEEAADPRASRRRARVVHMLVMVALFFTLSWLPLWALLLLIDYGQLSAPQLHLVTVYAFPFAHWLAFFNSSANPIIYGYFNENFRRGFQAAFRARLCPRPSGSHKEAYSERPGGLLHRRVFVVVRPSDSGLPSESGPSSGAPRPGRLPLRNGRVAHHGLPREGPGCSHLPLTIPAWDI
Chain of Neuropeptide FF receptor 2 (Q9Y5X5 whole entry): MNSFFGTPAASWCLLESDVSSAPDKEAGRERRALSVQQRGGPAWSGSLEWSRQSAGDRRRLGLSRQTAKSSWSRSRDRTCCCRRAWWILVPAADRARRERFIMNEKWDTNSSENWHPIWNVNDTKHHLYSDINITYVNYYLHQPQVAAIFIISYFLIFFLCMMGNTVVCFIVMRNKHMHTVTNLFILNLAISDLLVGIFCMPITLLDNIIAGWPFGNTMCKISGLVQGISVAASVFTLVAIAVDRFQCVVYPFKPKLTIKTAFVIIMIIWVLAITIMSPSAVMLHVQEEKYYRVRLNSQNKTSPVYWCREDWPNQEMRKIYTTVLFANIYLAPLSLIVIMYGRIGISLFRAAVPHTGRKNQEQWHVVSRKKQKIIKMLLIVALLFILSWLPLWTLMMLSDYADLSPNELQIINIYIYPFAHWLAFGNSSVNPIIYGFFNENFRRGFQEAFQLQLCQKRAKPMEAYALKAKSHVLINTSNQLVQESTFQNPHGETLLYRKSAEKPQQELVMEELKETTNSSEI

SMILES: CN1C(=O)CNC(=O)[C@H](NC(=O)[C@@H](N)Cc2ccc(O)cc2)CCCCNC(=O)C[C@@H](C(=O)N2CCC[C@H]2C(=O)N[C@@H](CCC(N)=O)C(=O)N[C@@H](CCCNC(=N)N)C(=O)N[C@@H](Cc2ccccc2)C(N)=O)NC(=O)[C@@H]1Cc1ccccc1 (H-Y[dK]G[NMeF]DPQRF-NH2; lactam 2-5)
- EC50 [1]: 580 nM
- Emax [2]: 73.7%
- EC50 [3]: 49.8 nM
- half-life at 10000 µM [4]: 45.4 min
- Tlast [5]: 240 min
- Activity [6]: inactive
- MPE [7]: 89.7%
- MPE [8]: 78.9%
- AUC [9]: 33297.7 µg·min/L
- MRT inf [10]: 5 min
- clearance [11]: 30 mL/min/kg
- Cmax [12]: 215 ng/mL
- CL/F [13]: 130 mL/min/kg
- Vd(app) [14]: 15.9 L/kg
- ED50 [15]: 0.63 pmol
- Activity [16]: Active
- Activity [17]: inactive
- Activity [18]: inactive
- Activity [19]: inactive
- Activity [20]: Active
- Activity [21]: inactive
- Activity [22]: inactive
- Activity [23]: Active
- ED50 [24]: 0.00344 µmol/kg
- Activity [25]: Non-Toxic
- Activity [26]: Non-Toxic
- Activity [27]: Non-Toxic
- Activity [28]: Non-Toxic
- Activity [29]: Non-Toxic
- Activity [30]: Non-Toxic
- Activity [31]: Non-Toxic
- Activity [32]: Non-Toxic
- EC50 [33]: 93.5 nM

From ChEMBL document CHEMBL5034023, “Development of Multifunctional and Orally Active Cyclic Peptide Agonists of Opioid/Neuropeptide FF Receptors that Produce Potent, Long-Lasting, and Peripherally Restricted Antinociception with Diminished Side Effects” (J Med Chem, 2021)
